Laboratory results from publication PMC3836618, “The Flux of Phenolic Compounds through Silicone Membranes” (Pharmaceutics, 2013).

Legend:
[1] = Maximum flux through silicone membrane from water (diffusion cell, saturated donor suspension, 32 °C)
Description: The measurement of maximum flux through silicone was performed according to a literature procedure at 32 °C, except that the silicone membrane was in contact with the receptor for only 24 h to condition them. The receptor was a 7.1 pH phosphate buffer.
After the membranes were conditioned, the receptor phases were changed and the donor suspensions (first application, 1 mL) were applied; n = 3. The donor cells were sealed by Parafilm. Samples were taken from the receptor every 2–3 h after application. Following sample collection, the receptor phases were changed to ensure sink conditions, and the donor suspensions were either changed or had more solid/oil added to the existing suspension, depending upon the visible extent of depletion. After 4–5 sampling intervals, the donor suspensions were removed with methanol and the receptors were changed. The membranes were leached with methanol in the donor phase for 48–72 h with samples taken and receptor phases changed every 12–24 h to remove any residual phenol in the membrane.
(§1) The flux values of the first and second application were determined by UV absorption.

[2] = set-up: method as in PMID 22602, PMID 16982163; settings: cited from earlier work; for Exp. log JMHAQ: experimental maximum flux through human stratum corneum from water, Table 2; for Log JMHAQ: maximum flux through human stratum corneum from water, log value, Table 1
[3] = set-up: method as in PMID 22602, PMID 16982163; settings: solubility in water, log value; cited from earlier work
[4] = set-up: method as in PMID 22602, PMID 16982163; settings: octanol:water partition coefficient; cited from earlier work
[5] = set-up: method as in PMID 22602, PMID 16982163; settings: solubility in octanol, log value; cited from earlier work
[6] = Flux of standard solute theophylline through silicone from propylene glycol (membrane integrity check, second application); assay type: in vitro ADME; settings: each membrane after methanol leaching
Description: as §1

[7] = set-up: method as in PMID 18588972; settings: donor suspension in propylene glycol; cited from earlier work
[8] = experimental maximum flux through silicone from water, Table 2
[9] = maximum flux through silicone from water, log value, 32 °C, receptor pH 7.1 phosphate buffer, n = 3, Table 1

SMILES	Exp. log JMPAQ [1, 8] [μmole cm^−2 h^−1]	Log JMPAQ [1, 9] [μmole cm^−2 h^−1]	Exp. log JMHAQ [2] [μmole cm^−2 h^−1]	Log JMHAQ [2] [μmole cm^−2 h^−1]	Log SAQ [3] [μmole cm^−3]	Log KOCT:AQ [4]	Log SOCT [5] [μmole cm^−3]	Exp. log JMPAQ ([1]; not told) [μmole cm^−2 h^−1]	Log JMPAQ ([1]; not told, pH 7.1) [μmole cm^−2 h^−1]	log JMPPG (log flux of theophylline through silicone from PG) [6]	log JMPPG (log flux of theophylline through silicone from PG), literature value [7] [log units]
Cc1ccc(O)cc1 [compound 4, 4-methyl]	1.62	1.62	0.53	0.53	2.29	1.95	4.24	–	–	–	–
Cc1cc(O)ccc1Cl [compound 1, 4-chloro-3-methyl]	–	–	0.29	0.29	1.55	3.10	4.65	1.01	1.01	–	–
Cc1cccc(O)c1 [compound 7, 3-methylphenol]	1.61	1.61	0.54	0.54	2.36	1.96	4.32	–	–	–	–
Cc1cc(O)cc(C)c1Cl [compound 2, 4-chloro-3,5-dimethylphenol]	−0.027	−0.027	−0.95	−0.95	0.28	3.39	3.67	–	–	–	–
Oc1ccc(Cl)cc1Cl [compound 5, 2,4-dichloro]	–	–	0.27	0.27	1.49	3.08	4.57	1.16	1.16	–	–
Cn1c(=O)c2[nH]cnc2n(C)c1=O [theophylline]	–	–	–	–	–	–	–	–	–	within the standard deviation of the literature value	−2.68 ± 0.12
